From US20260083126A1, “ANTIMICROBIAL COMPOSITIONS” (AHV International B.V., priority 2022, published 2026)
Entries after “also recorded” stand apart in the source; their conditions may differ.

Experiments:
Format in all cases: cell-based
Caco-2 cell line = experiment: MTT cytotoxicity test; settings: 24 h, 7.8 μM to 1 mM, emulsified with Tween-80/DMSO
Method: Scope. As standard tests cytotoxicity is measured on Caco-2 and HepG2 cell lines. Cytotoxicity of mentioned cell lines was determined by measuring the amount of converted MTT (3-(4,5-dimethylthiazol-2-yl)-2,5-diphenyltetrazolium bromide) by a mitochondrial dehydrogenase after exposure of various concentrations of the antimicrobial compounds. In living cells the dehydrogenase converts the soluble MTT into water insoluble purple formazan crystals that can not pass the cell membrane. The higher the metabolic activity of the cell, the more purple crystals are formed, the lower the cytotoxicity of the antimicrobial compound. Experimental design. The Caco-2 cell line as colorectal adenocarcinoma cells and HepG2 (derived from human liver) were used for the current experiments and were obtained from the ATCC. The intestinal Caco-2 cell line was cultured in 75-cm^2 culture flasks. Minimum Essential Medium (MEM) (Catalog Number(s) 31095029, ThermoFischer Scientific), supplemented with 10% (v/v) inactivated fetal calf serum (FCS) (Gibco), 1% (v/v) nonessential amino acids (Gibco), 1% sodium pyruvate (Gibco) and penicillin (100 U/ml)/streptomycin (100 μg/ml.) was utilized as medium for the growing cells. The cells were preserved in an incubator to provide them with the optimum moisture and temperature (humidified atmosphere of 95% air and 5% CO2 at 37° C. for 72 hours). The Caco-2 cells were seeded in flat bottom 96-well plates for performing the experiments. The cells were grown on flat bottom 96-well plates to the appropriate density to run the experiments. The cells were exposed to increasing concentrations of emulsified test compound (8 concentration, ranging from 7.8 μM to 1 mM) in standard culture medium (Catalogue 31331028, ThemoFischer Scientific) for each cell line. It should be noted that all the experiments were conducted in FBS (Catalog A3840101, ThermoFischer Scientific) and antibiotic free medium. The concentration of Tween-80 and DMSO that is present in the assay to emulsify the antimicrobial compound was in the range from 0,007% to 1%. The cells were incubated for 24 h with emulsified test compound and the assay was performed based on the standard protocol. By the end of the experiment the medium (cell supernatants) was removed and the lysis buffer (0.04 M hydrochloric acid, in propan-2-ol) was added to each well to solubilize the purple formazan crystals. As the final step, the absorbance was recorded by a multi-well reader at 595 nm. […] The results from all experiments were expressed as mean #standard error of the mean (SEM) conducted in triplicate (three wells/condition) of three independent experiments. Differences between results were statistically evaluated using One-way ANOVA with Bonferroni post-hoc test.

[1] = tested on: Pseudomonas aeruginosa ATCC 27853 biofilm; experiment: MBIC assay (crystal violet); settings: 48 h at 37° C., absorbance 540 nm
Method: The exact weighed amount was noted and the volume of solvent to reach a 80 mM dilution calculated. Half of the volume was added first, by adding Tween 80 and let stand for 5 minutes. In a second step, the other half of the volume DMSO was added and resuspended to help the dilution process. The closed tube was inverted 5-10 times and then vortexed very thoroughly for at least 30 seconds. If after this procedure crystals were still visible, the tube was placed in a shaker at 37° C. at 150 rpm for at least 30 minutes (it is indicated if the dissolution period was longer than 2 h). […] In case of Bis(4-Chlorophenyl) thiosulfonate, a lower concentrated stock solution of 2 mM needed to be prepared. For that, the required amount of compound was weighed in and 2% v/v Tween80 and 2% v/v DMSO of the end volume of the stock solution was added to the substance. This mix was heated in a water bath set to 40° C. and occasionally shaken. When the whole amount of the substance reached dissolution, the volume was filled up with growth medium until the end volume. This 2 mM stock solution of Bis(4-Chlorophenyl) thiosulfonate was used in the MIC plate and diluted two-fold, resulting in a testing range of Bis(4-Chlorophenyl) thiosulfonate from 1 mM to 0.002 mM.
Frozen aliquots of Staphylococcus epidermis ATCC 35984 and Pseudomonas aeruginosa ATCC 27853 were used to inoculate a tryptic soy agar (TSA) plate and were incubated overnight at 37° C. After incubation 3-5 well-isolated colonies with the same morphology were selected from the TSA plate and resuspended in 2 ml 0.9% saline solution with 3-6 glass beads and vortexed. The optical density of the bacterial suspension was measured at 600 nm (OD600) with a spectrophotometer (Evolution™ 201/220 UV-Visible Spectrophotometer, Thermo Fisher Scientific) and diluted to an OD600 of 0.2. The MBIC assay was performed in a 96-microtiter plate. […] The solution was resuspended and transferred to a flat-bottom 96-well plate and the absorbance measured at 540 nm with the spectrophotometer. […]

Candida albicans Y01-19 = experiment: MBC assay (Minimal Bactericide Concentration); settings: for effect at concentrations of growth inhibition (MIC90), C. albicans: MBC compared to MIC90; for MBC Candida albicans: Y01-19, n = 3, no colonies on agar plate after 20 h
Method: (§1) Hereafter, the stock solutions of the compounds were used in three repetitions in a minimal inhibitory concentration (MIC) assay at a 2-fold dilution range with various bacteria from the gram-positive and gram-negative group and a yeast, Candida albicans. The concentrations that show only less than 10% growth after 24 h were considered the MIC90-values, whereas the concentrations that show 50% growth after 24 h when compared to the bacterial growth control were considered the MIC50-values. Escherichia coli and Staphylococcus aureus were used as representatives for a gram-negative bacteria and gram-positive bacteria, respectively. Furthermore, the yeast C. albicans was also tested.
(§2) The Minimal Bactericide Concentration (MBC) of two compounds were determined, namely diisopropyl thiosulfonate and di-n-propyl thiosulfonate. […] This assay was performed per strain of E. coli, S. aureus, and C. albicans three independent times. Therefore, the standard deviation could also be calculated (Table 10).

[2] = tested on: Escherichia coli ATCC 25922; experiment: MBC assay (Minimal Bactericide Concentration); settings: for MBC Escherichia coli: ATCC 25922, n = 3, no colonies on agar plate after 20 h; for effect at concentrations of growth inhibition (MIC90), E. coli: MBC compared to MIC90
Method: as §1, §2

SMILES	cytotoxic effect on Caco-2 cells (MTT) (Caco-2 cell line)	P. aeruginosa MBIC90 [1]	effect at concentrations of growth inhibition (MIC90), C. albicans (Candida albicans Y01-19)	MBC Escherichia coli [2]	effect at concentrations of growth inhibition (MIC90), E. coli [2]	also measured
O=S(=O)(Sc1ccc(Cl)cc1)c1ccc(Cl)cc1 [Bis (4-chlorophenyl) thiosulfonate, Bis(4-chlorophenyl) thiosulfonate]	cytotoxic effects	–	–	–	–	–
Clc1ccc(SSc2ccc(Cl)cc2)cc1 [Bis (4-chlorophenyl) disulfide, Bis(4-chlorophenyl) disulfide]	cytotoxic effects	>4 mM	–	–	–	–
Fc1ccc(SSc2ccc(F)cc2)cc1 [Bis (4-fluorophenyl) disulfide, Bis(4-fluorophenyl) disulfide]	cytotoxic effects	–	–	–	–	–
CCCSS(=O)(=O)CCC [Di-n-propyl thiosulfonate, reference compound]	–	0.5 mM	bactericidal effect	208 µM	bactericidal effect	MBC Candida albicans (Candida albicans Y01-19): 25 µM
CCCSSCCC [Di-n-propyl disulfide, reference compound]	–	>4 mM	–	–	–	–
CC(C)SS(=O)(=O)C(C)C [Di-isopropyl thiosulfonate]	cytotoxic effects; also recorded: cytotoxicity is lowest	–	bactericidal effect	219 µM	bactericidal effect	MBC Candida albicans (Candida albicans Y01-19; listed as diisopropyl thiosulfonate Batch A): 75 µM; MBC Candida albicans (Candida albicans Y01-19; listed as diisopropyl thiosulfonate Batch C): 50 µM
